From ChEMBL document CHEMBL4706756, “Combination Therapy of RNA Interference and Small Molecules for Treating Hepatitis B Virus Infection” (ACS Med Chem Lett, 2021)
The source made the active and inactive calls. No cut-off for these calls is given here.

Legend:
Hepatitis B virus [1] = test: Antiviral activity against HBV infected in CHB patient assessed as reduction in HBsAg level at 250 mg, po administered daily from 1 to 84 days in presence of RNAi component and NA relative to control; assay type: functional; parameters: scale not given: the % may be the effect or the level left; conditions: time 1-84 day
Hepatitis B virus [2] = test: Antiviral activity against HBV infected in CHB patient assessed as reduction in viral RNA level at 250 mg, po administered daily from 1 to 84 days in presence of RNAi component and NA; assay type: functional, organism-based; conditions: time 1-84 day
Hepatitis B virus [3] = test: Antiviral activity against HBV infected in HBeAg-negative CHB patient assessed as reduction in HBsAg level at 250 mg, po administered daily from 1 to 84 days in presence of RNAi component and NA; assay type: functional, organism-based; conditions: time 1-84 day
Hepatitis B virus [4] = test: Antiviral activity against HBV infected in CHB patient assessed as reduction in HBcrAg level at 250 mg, po administered daily from 1 to 84 days in presence of RNAi component and NA; assay type: functional, organism-based; conditions: time 1-84 day
[5] = Toxicity in HBV infected CHB patient at 250 mg, po administered daily from 1 to 84 days in presence of RNAi component and NA; assay type: organism-based; conditions: human, in vivo, time 1-84 day
Hepatitis B virus [6] = test: Antiviral activity against HBV infected in CHB patient assessed as reduction in HBeAg level at 250 mg, po administered daily from 1 to 84 days in presence of RNAi component and NA; assay type: functional, organism-based; conditions: time 1-84 day
Hepatitis B virus [7] = test: Antiviral activity against HBV infected in HBeAg-positive CHB patient assessed as reduction in HBsAg level at 250 mg, po administered daily from 1 to 84 days in presence of RNAi component and NA; assay type: functional, organism-based; conditions: time 1-84 day
Hepatitis B virus [8] = test: Antiviral activity against HBV infected in CHB patient assessed as reduction in viral DNA level at 250 mg, po administered daily from 1 to 84 days in presence of RNAi component and NA; assay type: functional, organism-based; conditions: time 1-84 day

**Q.** Which Activity (Hepatitis B virus [1]) does the source give for `C[C@H](NS(=O)(=O)c1cc(C(=O)Nc2ccc(F)c(C#N)c2)n(C)c1)C(F)(F)F` [BERSACAPAVIR] here?
**A.** Its Activity is 90%.

**Q.** What about the Activity (Hepatitis B virus [2]) of the same molecule?
**A.** Its Activity is “Active”.

**Q.** What about the Activity (Hepatitis B virus [3]) of the same molecule?
**A.** The Activity was “Active”.

**Q.** What about the Activity (Hepatitis B virus [4]) of the same molecule?
**A.** The Activity was “Active”.

**Q.** And the Activity [5]?
**A.** The Activity was “Non-Toxic”.

**Q.** And the Activity (Hepatitis B virus [6])?
**A.** The Activity was “Active”.

**Q.** And the Activity (Hepatitis B virus [7])?
**A.** The Activity was “Active”.

**Q.** And the Activity (Hepatitis B virus [8])?
**A.** Its Activity is “Active”.
